Data on five molecules can be found in patent US20230118497A1, “PYRAZOLE-CONTAINING POLYCYCLIC DERIVATIVE INHIBITOR, PREPARATION METHOD THEREFOR AND APPLICATION THEREOF” (Shanghai Hansoh Biomedical Co., Ltd., priority 2019, published 2023).

What all share (type): in vitro ADME
Data set [1] in a line: Metabolic stability in liver microsome (mouse). The settings on record: mouse liver microsome 0.5 mg/mL, compound 1 μM; for half-life at 1 μM: liver microsomes, NADPH/UDPGA. The method, then: (§1) Test Example 5. Assay of Metabolic Stability in Liver Microsome
(§2) The objective of the experiment is to determine the stability of the compounds of the Examples in liver microsome of mouse, rat, dog and human.
(§3) Formulation of the working solution of the compound: The stock solution of the compound was added to phosphate buffer, and the final concentration was 20 μM.
(§4) Liver microsome was diluted with 100 mM phosphate buffer to obtain a final concentration of 0.625 mg/mL.
(§5) NADPH (reduced nicotinamide adenine dinucleotide phosphate) and UDPGA (uridine diphosphate glucuronic acid) were weighed respectively, followed by addition of 100 mM phosphate buffer. The final concentrations were 20 mM.
(§6) 1 mg of Alamethicin was weighed, to which 200 μL of DMSO was added to obtain a 5 mg/mL solution. The solution was diluted with phosphate buffer to obtain a final concentration of 50 μg/mL.
(§7) 2.5 Formulation of the reaction stop solution Stop solution: Cold acetonitrile containing 100 ng/mL labetalol hydrochloride and 400 ng/mL tolbutamide as internal standards.
(§8) 400 μL of the prepared liver microsome, 25 μL of the working solution of the compound and 25 μL of Alamethicin were added to a 96-well plate successively, which was then pre-incubated at 37° C. for 10 min. 50 μL of the prepared NADPH/UDPGA was added to initiate the reaction, and the plate was incubated at 37° C. The total volume of the reaction system was 500 μL. The final contents of the components were as follows: […]

A short description of data set [2]: Plasma protein binding rate (rat). The settings on record: 37° C. 6 h. The method, then:
(§9) Test Example 6. Assay of Plasma Protein Binding Rate
(§10) The objective of the experiment is to determine the plasma protein binding of the compounds of the Examples in plasma.
(§11) The compound of the Example was formulated into 1 mM solution A with DMSO;
(§12) The solution A was added to the plasma solution to obtain 5 μM solution B;
(§13) 1) 200 μL of solution B was added to the inside of the membrane;
(§14) 2) […] of PBS was added to the outside of the membrane;
(§15) 3) Incubation in a water bath at 37° C. for 6 h;
(§16) 4) The sample was diluted and analyzed by mass spectrometry.

Data set [3] has as its target T1, CYP450 enzyme isoform 3A4 (Homo sapiens, UniProt P08684).
T1 construct: single-point method using human liver microsome incubation system; from tissue; host or cells: human liver microsomes
Briefly: CYP enzyme single-point inhibition assay, 3A4. The conditions noted are these: human liver microsome, single-point method. The method, then:
(§17) Test Example 7. CYP Enzyme Single-Point Inhibition Assay
(§18) The inhibition of the compounds on CYP450 enzyme isoformwas rapidly predicted by single-point method using human liver microsome incubation system.
(§19) 2.5 mM NADPH: 4.165 mg of NADPH (reduced nicotinamide adenine dinucleotide phosphate) was weighed, followed by addition of 100 mM phosphate buffer to 2 mL. 0.25 mg/mL microsome solution: 4 mL of 100 mM phosphate buffer was added to 50 μL of 20 mg/mL microsome solution and mixed well.
(§20) The test compound of the Example was weighed, diluted to 10 mM with DMSO and then to 100 μM with 100 mM phosphate buffer.
(§21) 1. 40 μL of liver microsome, 10 μL of substrate and 10 μL of the test compound were added to a 96-well plate and pre-incubated for 3 min.
(§22) 2. 40 μL of NADPH was added.
(§23) 3. 300 μL of acetonitrile stop solution containing internal standard was added at 20 min.
(§24) 4. The sample was centrifuged and injected.
On the technique in general: Liver microsomes are vesicles of endoplasmic reticulum, rich in cytochrome P450 enzymes.

Data set [4] is described as follows: Plasma protein binding rate (human). The conditions noted are these: 37° C. 6 h. The method, then: as §9, §10, §11, §12, §13, §14, §15, §16
The target of data set [5] is T2, CYP450 enzyme isoform 2C9 (Homo sapiens, UniProt P11712).
T2 construct: single-point method using human liver microsome incubation system; from tissue; host or cells: human liver microsomes
Briefly: CYP enzyme single-point inhibition assay, 2C9. The settings on record: human liver microsome, single-point method. The method, then:
as §17, §18, §19, §20, §21, §22, §23, §24

Data set [6] deals with T3, CYP450 enzyme isoform 1A2 (Homo sapiens, UniProt P05177).
T3 construct: single-point method using human liver microsome incubation system; from tissue; host or cells: human liver microsomes
T3 sequence (P05177 1-516): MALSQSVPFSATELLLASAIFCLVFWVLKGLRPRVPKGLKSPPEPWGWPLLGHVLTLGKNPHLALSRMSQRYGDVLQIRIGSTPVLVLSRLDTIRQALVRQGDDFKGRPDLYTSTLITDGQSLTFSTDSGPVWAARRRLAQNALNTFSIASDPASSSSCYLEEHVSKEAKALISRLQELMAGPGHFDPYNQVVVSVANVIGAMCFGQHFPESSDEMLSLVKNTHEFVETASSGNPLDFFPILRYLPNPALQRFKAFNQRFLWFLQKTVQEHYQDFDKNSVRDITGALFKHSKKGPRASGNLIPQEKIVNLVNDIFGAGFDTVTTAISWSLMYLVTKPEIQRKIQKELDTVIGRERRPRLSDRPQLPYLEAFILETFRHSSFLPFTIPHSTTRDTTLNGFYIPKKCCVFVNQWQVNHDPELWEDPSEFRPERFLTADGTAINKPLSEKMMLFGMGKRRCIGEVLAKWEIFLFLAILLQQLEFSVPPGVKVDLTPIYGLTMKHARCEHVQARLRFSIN
Briefly: CYP enzyme single-point inhibition assay, 1A2. The conditions noted are these: human liver microsome, single-point method. The method, then: as §17, §18, §19, §20, §21, §22, §23, §24

A short description of data set [7]: Metabolic stability in liver microsome (human). The conditions noted are these: human liver microsome 0.5 mg/mL, compound 1 μM; for t1/2 / half-life at 1 μM: NADPH/UDPGA; for half-life at 1 μM: liver microsomes. The method, then: as §1, §2, §3, §4, §5, §6, §7, §8
Data set [8] concerns the target T4, CYP450 enzyme isoform 2C19 (Homo sapiens, UniProt P33261).
T4 construct: single-point method using human liver microsome incubation system; from tissue; host or cells: human liver microsomes
Kind of data set: CYP enzyme single-point inhibition assay, 2C19. The settings on record: human liver microsome, single-point method. The method, then: as §17, §18, §19, §20, §21, §22, §23, §24

A short description of data set [9]: Plasma protein binding rate (mouse). The conditions noted are these: 37° C. 6 h. The method, then: as §9, §10, §11, §12, §13, §14, §15, §16
The target in data set [10] is T5, CYP450 enzyme isoform 2D6 (Homo sapiens, UniProt P10635).
T5 construct: single-point method using human liver microsome incubation system; from tissue; host or cells: human liver microsomes
Kind of data set: CYP enzyme single-point inhibition assay, 2D6. The settings on record: human liver microsome, single-point method. The method, then: as §17, §18, §19, §20, §21, §22, §23, §24

Data set [11] can be described thus: Metabolic stability in liver microsome (dog). The conditions noted are these: dog liver microsome 0.5 mg/mL, compound 1 μM; for half-life at 1 μM: liver microsomes, NADPH/UDPGA. The method, then:
as §1, §2, §3, §4, §5, §6, §7, §8

pIC50: −log10 of the molar value. Like-named read-outs stand apart in the source and are kept apart here.

T1 sequence (P08684 whole entry, canonical isoform): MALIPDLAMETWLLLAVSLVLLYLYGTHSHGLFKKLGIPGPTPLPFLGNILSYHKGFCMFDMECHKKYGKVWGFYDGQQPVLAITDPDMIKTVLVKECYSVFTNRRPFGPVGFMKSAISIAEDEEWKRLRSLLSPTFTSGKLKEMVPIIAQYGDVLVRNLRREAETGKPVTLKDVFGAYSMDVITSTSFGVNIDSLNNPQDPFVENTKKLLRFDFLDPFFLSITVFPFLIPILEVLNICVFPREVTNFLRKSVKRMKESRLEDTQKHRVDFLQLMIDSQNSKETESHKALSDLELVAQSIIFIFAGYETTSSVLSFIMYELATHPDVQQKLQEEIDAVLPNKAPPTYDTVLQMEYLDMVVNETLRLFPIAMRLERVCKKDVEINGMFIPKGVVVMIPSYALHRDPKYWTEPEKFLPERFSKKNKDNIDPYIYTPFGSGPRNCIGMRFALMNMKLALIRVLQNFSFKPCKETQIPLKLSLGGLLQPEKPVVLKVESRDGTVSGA
T2 sequence (P11712 whole entry, canonical isoform): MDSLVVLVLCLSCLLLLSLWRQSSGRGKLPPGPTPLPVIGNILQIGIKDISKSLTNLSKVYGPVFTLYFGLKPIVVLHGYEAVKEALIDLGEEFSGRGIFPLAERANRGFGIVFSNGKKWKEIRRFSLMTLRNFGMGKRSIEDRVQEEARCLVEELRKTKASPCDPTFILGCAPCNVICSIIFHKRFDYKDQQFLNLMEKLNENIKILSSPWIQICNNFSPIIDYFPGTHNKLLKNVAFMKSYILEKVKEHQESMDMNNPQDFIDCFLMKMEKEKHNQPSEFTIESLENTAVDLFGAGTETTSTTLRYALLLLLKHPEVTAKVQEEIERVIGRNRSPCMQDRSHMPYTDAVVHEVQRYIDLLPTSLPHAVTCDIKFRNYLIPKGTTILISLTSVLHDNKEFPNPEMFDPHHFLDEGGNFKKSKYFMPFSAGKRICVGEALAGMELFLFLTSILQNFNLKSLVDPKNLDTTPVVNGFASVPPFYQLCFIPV
T5 sequence (P10635 whole entry, canonical isoform): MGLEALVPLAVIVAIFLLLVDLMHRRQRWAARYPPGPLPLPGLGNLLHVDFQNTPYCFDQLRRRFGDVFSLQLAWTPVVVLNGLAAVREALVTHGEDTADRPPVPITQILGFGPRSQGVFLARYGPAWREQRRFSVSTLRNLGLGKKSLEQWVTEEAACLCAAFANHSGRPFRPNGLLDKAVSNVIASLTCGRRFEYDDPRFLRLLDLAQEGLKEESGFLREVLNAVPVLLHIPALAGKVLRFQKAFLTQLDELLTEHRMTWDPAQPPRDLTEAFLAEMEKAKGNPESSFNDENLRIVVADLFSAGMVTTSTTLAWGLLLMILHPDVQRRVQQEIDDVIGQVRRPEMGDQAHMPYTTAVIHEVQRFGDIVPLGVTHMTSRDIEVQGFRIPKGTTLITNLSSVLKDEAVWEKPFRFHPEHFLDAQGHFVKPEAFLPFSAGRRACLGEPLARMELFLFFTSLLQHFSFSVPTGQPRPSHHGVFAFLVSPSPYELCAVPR
T4 sequence (P33261 whole entry, canonical isoform): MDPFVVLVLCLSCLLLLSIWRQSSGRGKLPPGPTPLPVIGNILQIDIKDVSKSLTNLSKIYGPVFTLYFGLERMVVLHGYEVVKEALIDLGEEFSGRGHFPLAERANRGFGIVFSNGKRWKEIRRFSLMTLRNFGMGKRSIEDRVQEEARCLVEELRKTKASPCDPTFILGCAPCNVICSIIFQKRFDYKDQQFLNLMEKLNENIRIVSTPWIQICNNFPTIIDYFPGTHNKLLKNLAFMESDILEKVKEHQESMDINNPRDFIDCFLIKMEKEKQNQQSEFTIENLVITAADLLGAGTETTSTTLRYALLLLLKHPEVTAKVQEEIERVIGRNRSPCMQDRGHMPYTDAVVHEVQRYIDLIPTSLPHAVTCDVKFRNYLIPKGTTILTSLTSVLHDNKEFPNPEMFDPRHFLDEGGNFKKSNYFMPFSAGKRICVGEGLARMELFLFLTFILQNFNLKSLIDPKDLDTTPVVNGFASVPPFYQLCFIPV

Broadly, the half-life is how long it takes for the measured level to halve. Read a low half-life as fast loss. One may read the fraction unbound as the share of the substance not bound to proteins or other matrix. As usually defined, the pIC50 is the negative decadic logarithm of the IC50, by convention in mol/L. In data set [1], `CCc1cc2n(CC(=O)Nc3ccc(F)cn3)c(=O)c3ccc(C(F)(F)F)nc3n2n1` [Example 34, 2-(2-Ethyl-5-oxo-8-(trifluoromethyl)pyrazolo[1,5-a]pyrido[3,2-e]pyrimidin-4(5H)-yl)-N-(5-fluoropyridin-2-yl)acetamide] had a half-life at 1 μM of 3.11 h. Besides, the “Remaining (%, 60 min)” value in [1] worked out at 81.3%; in [7], 113.9%. Further, the fraction unbound at 6 h, 5 μM in data set [2] is 0.044; in data set [4], 0.015; in [9], 0.043. The pIC50 in data set [3] (3A4-M, read-out: 3A4-M IC50) was less than 4.00; in [3] (3A4-T, read-out: 3A4-T IC50), less than 4.00; in [5] it was less than 4.00; in [6], 4.60; in data set [8] it was less than 4.00; in data set [10], less than 4.00. In addition, the t1/2 result in data set [7] is “∞”.

As to `O=C(Cn1c(=O)c2ccc(C(F)(F)F)nc2n2nc(Br)cc12)Nc1ccc(F)cn1` [Example 61-A, 2-(2-bromo-5-oxo-8-(trifluoromethyl)pyrazolo[1,5-a]pyrido[3,2-e]pyrimidin-4(5H)-yl)-N-(5-fluoropyridin-2-yl)acetamide], the figures for the half-life at 1 μM in [1] and in [11] were 6.82 h and 15.6 h, respectively. In addition, the “Remaining (%, 60 min)” value in data set [1] is recorded as 92.5%; in data set [7] it was 100.4%; in [11] it was 96.0%. Further, the fraction unbound at 6 h, 5 μM in data set [2] turned out to be 0.027; in [4], 0.016; in data set [9] it was 0.044. Also, the pIC50 in data set [3] (3A4-M, read-out: 3A4-M IC50) was less than 4.00; in data set [3] (3A4-T, read-out: 3A4-T IC50), less than 4.00; in data set [5], less than 4.00; in data set [6], 4.14; in [8], less than 4.00; in data set [10], less than 4.00. Moreover, in data set [7], the t1/2 result is “∞”.

For `N#Cc1cc2n(CC(=O)Nc3ccc(F)cn3)c(=O)c3ccc(C(F)(F)F)nc3n2n1` [Example 68, 2-(2-Cyano-5-oxo-8-(trifluoromethyl)pyrazolo[1,5-a]pyrido[3,2-e]pyrimidin-4(5H)-yl)-N-(5-fluoropyridin-2-yl)acetamide], the half-life at 1 μM in data set [1] turned out to be 2.75 h; in [7], 23.4 h; in [11] it was 22.5 h. Also, the “Remaining (%, 60 min)” value in data set [1] is 91.6%; in data set [7] it was 101.2%; in data set [11] it was 99.0%. Also, the results for the fraction unbound at 6 h, 5 μM in [2], in data set [4] and in data set [9] were 0.11, 0.066 and 0.162, respectively. Moreover, the pIC50 in [3] (3A4-M, read-out: 3A4-M IC50) was less than 4.00; in data set [3] (3A4-T, read-out: 3A4-T IC50) it was less than 4.00; in data set [5], less than 4.00; in [6], less than 4.00; in data set [8], less than 4.00; in data set [10] it was less than 4.00.

Consider `O=C(Cn1c(=O)c2ccc(C(F)(F)F)nc2n2nccc12)Nc1ccc(F)cn1` [Example 78, N-(5-Fluoropyridin-2-yl)-2-(5-oxo-8-(trifluoromethyl)pyrazolo[1,5-a]pyrido[3,2-e]pyrimidin-4(5H)-yl)acetamide], for which the half-life at 1 μM in [1] came to 568 h; in data set [7], 14.7 h; in data set [11], 11.2 h. Further, the entries for the “Remaining (%, 60 min)” value in [1], in data set [7] and in data set [11] were 99.3%, 97.5% and 93.4%, respectively. Further, the unbound share (fraction unbound) at 6 h, 5 μM in data set [2] came to 0.061; in data set [4] it was 0.103; in data set [9], 0.084. Further, the pIC50 in data set [3] (3A4-M, read-out: 3A4-M IC50) is less than 4.00; in [3] (3A4-T, read-out: 3A4-T IC50) it was less than 4.00; in data set [5], less than 4.00; in data set [6], less than 4.00; in data set [8] it was less than 4.00; in data set [10], less than 4.00.

For the molecule `N#Cc1cnn2c3nc(C(F)(F)F)ccc3c(=O)n(CC(=O)Nc3ccc(F)cn3)c12` [Example 80, 2-(3-Cyano-5-oxo-8-(trifluoromethyl)pyrazolo[1,5-a]pyrido[3,2-e]pyrimidin-4(5H)-yl)-N-(5-fluoropyridin-2-yl)acetamide], the fraction unbound at 6 h, 5 μM turned out to be 0.234 in [2], 0.135 in [4] and 0.256 in data set [9].
